Among the data in US20240366598A1, “GLUCOSE-DEPENDENT INSULINOTROPIC POLYPEPTIDE RECEPTOR ANTAGONISTS AND USES THEREOF” (Pfizer Inc., priority 2023, published 2024) are IC50 values, retold here.

The assay has as its target T1, human Glucose-dependent Insulinotropic Polypeptide Receptor (hGIPR) (Homo sapiens, UniProt P48546).
T1 sequence (P48546 22-466): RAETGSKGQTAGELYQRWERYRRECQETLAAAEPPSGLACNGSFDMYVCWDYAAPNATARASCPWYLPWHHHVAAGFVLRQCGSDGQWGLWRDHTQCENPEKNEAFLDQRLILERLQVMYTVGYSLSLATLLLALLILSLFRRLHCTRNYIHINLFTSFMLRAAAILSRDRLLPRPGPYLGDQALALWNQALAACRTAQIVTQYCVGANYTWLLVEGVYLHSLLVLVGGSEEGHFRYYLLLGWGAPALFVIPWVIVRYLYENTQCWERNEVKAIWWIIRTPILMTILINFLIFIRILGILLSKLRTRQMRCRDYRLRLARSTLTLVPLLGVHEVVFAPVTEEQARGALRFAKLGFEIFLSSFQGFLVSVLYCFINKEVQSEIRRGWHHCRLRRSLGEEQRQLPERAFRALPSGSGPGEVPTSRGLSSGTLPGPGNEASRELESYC
Briefly: Functional in vitro GIPR antagonist potency assay (cAMP HTRF, CHO-K1 cells stably expressing hGIPR, hGIP stimulation at about EC80). The class given is cell-based. The following applies: geometric mean, hGIP at estimated EC80, examples marked ^2: overall geometric mean of multiple forms (including salts) tested. In short, it runs like this: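 CHO-K1 cells expressing hGIPR (2,000 per well) in HBSS/HEPES/0.1% BSA with 200 μM IBMX were preincubated 2 h at 37 °C with an 11-point compound series (0.5% DMSO). hGIP at about EC80 was then added for 30 min, and cAMP was read by HTRF (665/620 nm). Data were normalized between hGIP alone and full antagonism by a reference antagonist at 80 μM.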
By IC50 is commonly meant the concentration at which inhibition is half-maximal. Consider `O=C(O)c1ccc(-c2ccc(NC(=O)[C@H]3CCCN3C(=O)Nc3ccc(Cl)cc3Cl)cc2)cc1` [Example 103, 4′-({1-[(2,4-dichlorophenyl)carbamoyl]-D-prolyl}amino)[1,1′-biphenyl]-4-carboxylic acid], for which the IC50 is 29 nM.

For the molecule `CC(C)c1ccc(NC(=O)N2C[C@H]3C[C@H]3[C@@H]2C(=O)Nc2ccc(-c3ccc(C(=O)O)cc3)cc2)cc1` [Example 104, 4′-{[(1R,2R,5S)-3-{[4-(propan-2-yl)phenyl]carbamoyl}-3-azabicyclo[3.1.0]hexane-2-carbonyl]amino}[1,1′-biphenyl]-4-carboxylic acid], the IC50 is 2.9 nM.

On to `CC(C)c1ccc(NC(=O)N2C[C@@H]3C[C@@H]3[C@@H]2C(=O)Nc2ccc(-c3ccc(C(=O)O)cc3)cc2)cc1` [Example 105, 4′-{[(1S,2R,5R)-3-{[4-(propan-2-yl)phenyl]carbamoyl}-3-azabicyclo[3.1.0]hexane-2-carbonyl]amino}[1,1′-biphenyl]-4-carboxylic acid], for which the IC50 is 8.8 nM.

On to `Cc1cc(NC(=O)N2CCC[C@@H]2C(=O)Nc2ccc(-c3ccc(C(=O)O)cc3)cc2)ccc1C(F)(F)F` [Example 106, 4′-[(1-{[3-methyl-4-(trifluoromethyl)phenyl]carbamoyl}-D-prolyl)amino][1,1′-biphenyl]-4-carboxylic acid], for which the half-inhibitory concentration (IC50) was 3 nM.

Consider `N#Cc1cc(CNC(=O)N2CCC[C@@H]2C(=O)Nc2ccc(-c3ccc(C(=O)O)cc3)cc2)ccc1Cl` [Example 107, 4′-[(1-{[(4-chloro-3-cyanophenyl)methyl]carbamoyl}-D-prolyl)amino][1,1′-biphenyl]-4-carboxylic acid], for which the IC50 was 720 nM.

On to `O=C(O)c1ccc(-c2ccc(NC(=O)[C@H]3CCCN3C(=O)NCc3cnc(C(F)(F)F)nc3)cc2)cc1` [Example 108, 4′-{[1-({[2-(trifluoromethyl)pyrimidin-5-yl]methyl}carbamoyl)-D-prolyl]amino}[1,1′-biphenyl]-4-carboxylic acid], for which the half-maximal inhibitory concentration (IC50) is 260 nM.

For the molecule `CC(C)c1ccc(CNC(=O)N2CCC[C@@H]2C(=O)Nc2ccc(-c3ccc(C(=O)O)cc3)cc2)cc1` [Example 109, 4′-{[1-{{[4-(propan-2-yl)phenyl]methyl}carbamoyl)-D-prolyl]amino}[1,1′-biphenyl]-4-carboxylic acid], the IC50 was 5.1 nM.

For `O=C(O)c1ccc(-c2ccc(NC(=O)[C@H]3CCCN3C(=O)Nc3ccc(Cl)c(C(F)(F)F)c3)cc2)cc1` [Example 110, 4′-[(1-{[4-chloro-3-(trifluoromethyl)phenyl]carbamoyl}-D-prolyl)amino][1,1′-biphenyl]-4-carboxylic acid], the IC50 was 3.7 nM.

As for `CCC(C)c1ccc(NC(=O)N2CCC[C@@H]2C(=O)Nc2ccc(-c3ccc(C(=O)O)cc3)cc2)cc1` (stereo partly drawn) [Example 111, 4′-[(1-{[4-(butan-2-yl)phenyl]carbamoyl}-D-prolyl)amino][1,1′-biphenyl]-4-carboxylic acid], the IC50 was 11 nM.

For `CC(C)c1ncc(NC(=O)N2CCC[C@@H]2C(=O)Nc2ccc(-c3ccc(C(=O)O)cc3)cc2)cn1` [Example 112, 4′-[(1-{[2-(propan-2-yl)pyrimidin-5-yl]carbamoyl}-D-prolyl)amino][1,1′-biphenyl]-4-carboxylic acid], the IC50 is 840 nM.

With `O=C(O)c1ccc(-c2ccc(NC(=O)[C@H]3CCCN3C(=O)NCc3cc(Cl)cc(Cl)c3)cc2)cc1` [Example 113, 4′-[(1-{[(3,5-dichlorophenyl)methyl]carbamoyl}-D-prolyl)amino][1,1′-biphenyl]-4-carboxylic acid], the IC50 is 21 nM.

Turning to `O=C(O)c1ccc(-c2ccc(NC(=O)[C@H]3CCCN3C(=O)Nc3ccc(C4CCCCC4)cc3)cc2)cc1` [Example 114, 4′-({1-[(4-cyclohexylphenyl)carbamoyl]-D-prolyl}amino)[1,1′-biphenyl]-4-carboxylic acid], the concentration for half-maximal inhibition (IC50) was 40 nM.

Regarding `O=C(O)c1ccc(-c2ccc(NC(=O)[C@H]3CCCN3C(=O)Nc3ccc(C4CCCC4)cc3)cc2)cc1` [Example 115, 4′-({1-[(4-cyclopentylphenyl)carbamoyl]-D-prolyl}amino)[1,1′-biphenyl]-4-carboxylic acid], the IC50 was 4.8 nM.

As for `O=C(O)c1ccc(-c2ccc(NC(=O)[C@H]3CCCN3C(=O)NCc3ccc(Cl)c(Cl)c3)cc2)cc1` [Example 116, 4′-[(1-{[(3,4-dichlorophenyl)methyl]carbamoyl}-D-prolyl)amino][1,1′-biphenyl]-4-carboxylic acid], the half-maximal inhibitory concentration (IC50) was 12 nM.

As to `CC(C)c1ccc(NC(=O)N2CCC[C@@H]2C(=O)Nc2ccc(-c3ccc(C(=O)O)cc3)cc2)c(F)c1` [Example 117, 4′-[(1-{[2-fluoro-4-(propan-2-yl)phenyl]carbamoyl}-D-prolyl)amino][1,1′-biphenyl]-4-carboxylic acid], the IC50 was 26 nM.

With `CCc1ccc(NC(=O)N2CCC[C@@H]2C(=O)Nc2ccc(-c3ccc(C(=O)O)cc3)cc2)cc1` [Example 118, 4′-({1-[(4-ethylphenyl)carbamoyl]-D-prolyl}amino)[1,1′-biphenyl]-4-carboxylic acid], the IC50 was 15 nM.

In the case of `CC(C)(C)c1ccc(NC(=O)N2CCC[C@@H]2C(=O)Nc2ccc(-c3ccc(C(=O)O)cc3)cc2)cc1` [Example 119, 4′-({1-[(4-tert-butylphenyl)carbamoyl]-D-prolyl}amino)[1,1′-biphenyl]-4-carboxylic acid], the IC50 was 24 nM.

For the molecule `COc1nc(C(=O)O)ccc1-c1ccc(NC(=O)[C@H]2CCCN2C(=O)Nc2ccc(C(C)C)cc2)cc1` [Example 120, 6-methoxy-5-{4-[(1-{[4-(propan-2-yl)phenyl]carbamoyl}-D-prolyl)amino]phenyl}pyridine-2-carboxylic acid], the half-inhibitory concentration (IC50) is 26 nM.

`CC(C)c1ccc(NC(=O)N2CCC[C@@H]2C(=O)Nc2cnc(-c3ccc(C(=O)O)cc3)cn2)cc1` [Example 121, 4-{5-[(1-{[4-(propan-2-yl)phenyl]carbamoyl}-D-prolyl)amino]pyrazin-2-yl}benzoic acid]: the IC50 is 27 nM.

Turning to `O=C(O)c1ccc(-c2ccc(NC(=O)[C@H]3CCCN3C(=O)Nc3ccc(C4CC4)cc3)cc2)cn1` [Example 122, 5-[4-({1-[(4-cyclopropylphenyl)carbamoyl]-D-prolyl}amino)phenyl]pyridine-2-carboxylic acid], the IC50 is 99 nM.

For `CC(C)c1ccc(NC(=O)N2C[C@H]3C[C@H]3[C@@H]2C(=O)Nc2ccc(-c3ccc(C(=O)O)cc3)cn2)cc1` [Example 123, 4-(6-{[(1R,2R,5S)-3-{[4-(propan-2-yl)phenyl]carbamoyl}-3-azabicyclo[3.1.0]hexane-2-carbonyl]amino}pyridin-3-yl)benzoic acid], the IC50 was 11 nM.

As to `O=C(O)c1ccc(-c2ccc(NC(=O)[C@H]3CCCN3C(=O)NCc3ccc(F)c(Cl)c3)cc2)cc1` [Example 124, 4′-[(1-{[(3-chloro-4-fluorophenyl)methyl]carbamoyl}-D-prolyl)amino][1,1′-biphenyl]-4-carboxylic acid], the IC50 is 74 nM.

In the case of `CC(C)(C)c1ccc(CNC(=O)N2CCC[C@@H]2C(=O)Nc2ccc(-c3ccc(C(=O)O)cc3)cc2)cc1` [Example 125, 4′-[(1-{[(4-tert-butylphenyl)methyl]carbamoyl}-D-prolyl)amino][1,1′-biphenyl]-4-carboxylic acid], the IC50 is 19 nM.

With `O=C(O)c1ccc(-c2ccc(NC(=O)[C@H]3CCCN3C(=O)NCc3ccc(C(F)(F)F)c(F)c3)cc2)cc1` [Example 126, 4′-{[1-({[3-fluoro-4-(trifluoromethyl)phenyl]methyl}carbamoyl)-D-prolyl]amino}[1,1′-biphenyl]-4-carboxylic acid], the IC50 is 6.6 nM.

Turning to `CC(C)c1ccc(CNC(=O)N2CCC[C@@H]2C(=O)Nc2ccc(-c3ccc(C(=O)O)cc3)cc2)c(F)c1` [Example 127, 4′-{[1-({[2-fluoro-4-(propan-2-yl)phenyl]methyl}carbamoyl)-D-prolyl]amino}[1,1′-biphenyl]-4-carboxylic acid], the concentration for half-maximal inhibition (IC50) was 69 nM.

For the molecule `O=C(O)c1ccc(-c2ccc(NC(=O)[C@H]3CCCN3C(=O)Nc3cc(F)c(C(F)(F)F)c(F)c3)cc2)cc1` [Example 128, 4′-[(1-{[3,5-difluoro-4-(trifluoromethyl)phenyl]carbamoyl}-D-prolyl)amino][1,1′-biphenyl]-4-carboxylic acid], the half-maximal inhibitory concentration (IC50) was 9.3 nM.

With `Cc1ccc(CNC(=O)N2CCC[C@@H]2C(=O)Nc2ccc(-c3ccc(C(=O)O)cc3)cc2)cc1F` [Example 129, 4′-[(1-{[(3-fluoro-4-methylphenyl)methyl]carbamoyl}-D-prolyl)amino][1,1′-biphenyl]-4-carboxylic acid], the IC50 is 14 nM.

For the molecule `O=C(O)c1ccc(-c2ccc(NC(=O)[C@H]3CCCN3C(=O)NCc3ccc(C(F)(F)F)c(Cl)c3)cc2)cc1` [Example 130, 4′-{[1-({[3-chloro-4-(trifluoromethyl)phenyl]methyl}carbamoyl)-D-prolyl]amino}[1,1′-biphenyl]-4-carboxylic acid], the IC50 is 11 nM.

Regarding `O=C(O)c1ccc(-c2ccc(NC(=O)[C@H]3CCCN3C(=O)NCc3ccc(C(F)(F)F)cc3F)cc2)cc1` [Example 131, 4′-{[1-({[2-fluoro-4-(trifluoromethyl)phenyl]methyl}carbamoyl)-D-prolyl]amino}[1,1′-biphenyl]-4-carboxylic acid], the IC50 is 140 nM.
